Among the data in patent US12358893B2, “Metalloenzyme inhibitor compounds” (Corxel Pharmaceuticals Hong Kong Limited, priority 2019, dated 2025) are IC50 values, retold here.

pIC50: −log10 of the molar value.

Assay [1] has as its target T1, recombinant human CYP11B2 (Homo sapiens, UniProt P19099).
T1 construct: made in house; host or cells: V79-4 cells (Chinese hamster lung fibroblasts); enzyme-enriched microsomal fraction of the lysate
T1 sequence (P19099 25-503): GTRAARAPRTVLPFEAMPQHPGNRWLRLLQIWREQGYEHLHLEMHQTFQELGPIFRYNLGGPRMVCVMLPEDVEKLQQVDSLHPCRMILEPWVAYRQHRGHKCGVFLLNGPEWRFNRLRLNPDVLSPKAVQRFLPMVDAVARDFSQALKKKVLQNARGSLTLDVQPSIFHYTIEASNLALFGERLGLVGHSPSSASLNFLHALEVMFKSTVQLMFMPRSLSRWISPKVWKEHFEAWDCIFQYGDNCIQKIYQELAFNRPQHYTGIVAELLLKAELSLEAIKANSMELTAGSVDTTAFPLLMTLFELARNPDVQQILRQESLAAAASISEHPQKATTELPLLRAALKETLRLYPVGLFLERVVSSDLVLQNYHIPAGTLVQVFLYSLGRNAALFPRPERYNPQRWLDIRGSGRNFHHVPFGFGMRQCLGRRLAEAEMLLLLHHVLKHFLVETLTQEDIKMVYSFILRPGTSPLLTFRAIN
The assay can be described thus: CYP11B2 enzyme assay with enzyme enriched microsomes, aldosterone measured by LC-MS. The assay is classed as biochemical. As to conditions: microsomes from V79-4 cells; 11-deoxycorticosterone at Km; read-out: hCYP11B2 IC50. The procedure: (§1) V79-4 cells expressing recombinant andrenodoxin and andrenodoxin reductase with either recombinant human CYP11B2 or CYP11B1 were prepared according to methods previously described (LaSala et al 2009 Anal Bioch 394:56-61). An enzyme enriched microsomal fraction was prepared from cellular lysates and subsequently used as the enzyme source for determining inhibitor IC50s. The substrate Km values were experimentally determined for 11-deoxycorticosterone (CYP11B2 substrate) and 11-deoxycortisol (CYP11B1 substrate). Enzyme assays for inhibitor screening employed CYP11B2 and CYP11B1 enzyme enriched microsomes and were run at the Km of the respective substrates. Products of the enzyme reactions, aldosterone for CYP11B2 or cortisol for CYP11B1, were measured by LC-MS. Assays were run under conditions of less than 20% substrate turnover. Inhibitor IC50s were generated by determining the product formation in the absence or presence of inhibitor at various concentrations. In the absence of the test compound, the product formed (Pt) in each data set was defined as 100% activity. In the absence of enzyme, the product formed (Pb) in each data set was defined as 0% activity. The percent activity in the presence of each inhibitor was calculated according to the following equation: % activity=(P−Pb)/(Pt−Pb), where P=the product formed in the presence of the inhibitor. The IC50 value was defined as the inhibitor concentration causing a 50% decrease in activity relative to the no inhibitor control reaction.

Assay [2] addresses T2, recombinant human CYP11B1 (Homo sapiens, UniProt P15538).
T2 construct: made in house; host or cells: V79-4 cells (Chinese hamster lung fibroblasts); enzyme-enriched microsomal fraction of the lysate
T2 sequence (P15538 25-503): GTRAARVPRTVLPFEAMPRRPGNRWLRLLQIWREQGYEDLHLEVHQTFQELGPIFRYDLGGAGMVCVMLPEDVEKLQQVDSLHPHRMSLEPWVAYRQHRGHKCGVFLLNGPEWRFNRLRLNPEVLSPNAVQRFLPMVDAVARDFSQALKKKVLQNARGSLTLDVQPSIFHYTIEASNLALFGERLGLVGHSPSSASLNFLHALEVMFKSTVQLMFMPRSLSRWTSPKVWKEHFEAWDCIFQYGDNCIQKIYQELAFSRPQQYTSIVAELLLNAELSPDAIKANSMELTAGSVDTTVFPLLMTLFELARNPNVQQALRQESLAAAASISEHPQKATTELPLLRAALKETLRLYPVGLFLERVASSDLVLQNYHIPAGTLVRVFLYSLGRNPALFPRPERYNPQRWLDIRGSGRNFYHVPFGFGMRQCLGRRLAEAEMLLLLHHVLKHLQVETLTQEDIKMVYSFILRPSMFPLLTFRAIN
Kind of assay: CYP11B1 enzyme assay with enzyme enriched microsomes, cortisol measured by LC-MS. The conditions noted are these: microsomes from V79-4 cells; 11-deoxycortisol at Km; read-out: hCYP11B1 IC50. The assay is classed as biochemical. The procedure:
as §1

In general, pIC50 refers to the negative decadic logarithm of the IC50, by convention in mol/L. As for `CS(=O)(=O)Nc1ccc2ncn(-c3nc4cc(F)c(F)cc4n3C3CC3)c2c1` [Example 45, N-(1′-cyclopropyl-5′,6′-difluoro-1′H-[1,2′-bibenzo[d]imidazol]-6-yl) methanesulfonamide], the pIC50 in assay [1] was 5.00 to 6.00; in assay [2] it was below 5.00.

For the molecule `CS(=O)(=O)Nc1ccc2c(c1)ncn2-c1nc2cc(F)c(F)cc2n1C1CC1` [Example 46, N-(1′-cyclopropyl-5′,6′-difluoro-1′H-[1,2′-bibenzo[d]imidazol]-5-yl) methanesulfonamide], the results for the pIC50 in assay [1] and in assay [2] were 6.00 to 7.00 and below 5.00, respectively.

Regarding `CS(=O)(=O)Nc1ccc2c(c1)ncn2-c1nc2ccc(C#N)cc2n1C1CC1` [Example 47, N-(6′-cyano-1′-cyclopropyl-1′H-[1,2′-bibenzo[d]imidazol]-5-yl) methanesulfonamide], the pIC50 in assay [1] is 6.00 to 7.00; in assay [2], below 5.00.

As for `CS(=O)(=O)Nc1ccc2ncn(-c3nc4ccc(C#N)cc4n3C3CC3)c2c1` [Example 48, N-(6′-cyano-1′-cyclopropyl-1′H-[1,2′-bibenzo[d]imidazol]-6-yl) methanesulfonamide], the pIC50 in assay [1] is 5.00 to 6.00; in assay [2], below 5.00.

On to `N#Cc1ccc2nc(-n3cnc4cc(OC(F)F)ccc43)n(C3CC3)c2c1` [Example 49, 1′-cyclopropyl-5-(difluoromethoxy)-1′H-[1,2′-bibenzo[d]imidazole]-6′-carbonitrile], for which the pIC50 in assay [1] was 7.00 to 9.00; in assay [2] it was 6.00 to 7.00.

`N#Cc1ccc2nc(-n3cnc4ccc(OC(F)F)cc43)n(C3CC3)c2c1` [Example 50, 1′-cyclopropyl-6-(difluoromethoxy)-1′H-[1,2′-bibenzo[d]imidazole]-6′-carbonitrile]: the figures for the negative-log IC50 (pIC50) in assay [1] and in assay [2] were 7.00 to 9.00 and 5.00 to 6.00, respectively.

On to `Fc1cc2nc(-n3cnc4cc(OC(F)F)ccc43)n(C3CC3)c2cc1F` [Example 52, 1′-cyclopropyl-5-(difluoromethoxy)-5′,6′-difluoro-1′H-1,2′-bibenzo[d]imidazole], for which the values for the pIC50 in assay [1] and in assay [2] were 7.00 to 9.00 and 6.00 to 7.00, respectively.

Turning to `Fc1cc2nc(-n3cnc4ccc(OC(F)F)cc43)n(C3CC3)c2cc1F` [Example 53, 1′-cyclopropyl-6-(difluoromethoxy)-5′,6′-difluoro-1′H-1,2′-bibenzo[d]imidazole], the negative-log IC50 (pIC50) is 7.00 to 9.00 in assay [1] and 5.00 to 6.00 in assay [2].
